Values of other authors in patent US6337095B1, “Process for the isolation of compound scopoletin useful as nitric oxide synthesis inhibitor” (Council of Scientific and Industrial Research, priority 2000, dated 2002).

System: murine macrophages
Settings: reported in literature (Planta Medica 65:400-403, 1999)

COc1cc2ccc(=O)oc2cc1O [scopoletin, 7-hydroxy-6-methoxy coumarin]
inhibition of nitric oxide (NO) synthesis: showed inhibition
